The results in this text go back to ChEMBL document CHEMBL4732240, “Synthesis and antibacterial evaluation of new monobactams” (2021).

Holding throughout (type): functional
The subject of test [1] is Enterobacter cloacae. In words: Antibacterial activity against Enterobacter cloacae clinical isolate assessed as reduction in bacterial growth by CLSI based broth microdilution method.
Test [2] has as its system Klebsiella pneumoniae. In words: Antibacterial activity against Klebsiella pneumoniae 700603 assessed as reduction in bacterial growth by CLSI based broth microdilution method. In general terms: Broth dilution looks for growth in wells or tubes with falling amounts of substance.
The subject of test [3] is Klebsiella pneumoniae. Nature of the test: Antibacterial activity against Klebsiella pneumoniae clinical isolate assessed as reduction in bacterial growth by CLSI based broth microdilution method.
For test [4], the system named is Escherichia coli. Nature of the test: Antibacterial activity against Escherichia coli ATCC 8739 assessed as reduction in bacterial growth by CLSI based broth microdilution method.
Test [5] concerns Pseudomonas aeruginosa. Nature of the test: Antibacterial activity against Pseudomonas aeruginosa 9027 assessed as reduction in bacterial growth by CLSI based broth microdilution method.
Test [6] relates to Pseudomonas aeruginosa. In words: Antibacterial activity against Pseudomonas aeruginosa clinical isolate. assessed as reduction in bacterial growth by CLSI based broth microdilution method.
Test [7] concerns Enterobacter cloacae. In words: Antibacterial activity against Enterobacter cloacae 700323 assessed as reduction in bacterial growth by CLSI based broth microdilution method.
Test [8] has as its system Acinetobacter baumannii. Nature of the test: Antibacterial activity against Acinetobacter baumannii clinical isolate assessed as reduction in bacterial growth by CLSI based broth microdilution method.
The subject of test [9] is Escherichia coli. Nature of the test: Antibacterial activity against Escherichia coli clinical isolate assessed as reduction in bacterial growth by CLSI based broth microdilution method.
The subject of test [10] is Acinetobacter baumannii. Nature of the test: Antibacterial activity against Acinetobacter baumannii ATCC 19606 assessed as reduction in bacterial growth by CLSI based broth microdilution method. The note with it: ATCC 19606 = CIP 70.34 = JCM 6841.

Converted amounts (≈) assume the structure as drawn. Some results are limits rather than exact numbers.

For the compound `CC1(C)[C@H](NC(=O)/C(=N/O[C@@H](COc2ccc(NC(=O)NC3CCNCC3)cc2)C(=O)O)c2csc(N)n2)C(=O)N1OS(=O)(=O)O`, the MIC with Enterobacter cloacae [1] was 32 µg/mL (≈ 46.7 µM); in the test with Klebsiella pneumoniae [2], above 64 µg/mL; in the test with Klebsiella pneumoniae [3], 8 µg/mL (≈ 11.7 µM); in the test with Escherichia coli [4] it was 4 µg/mL (≈ 5.84 µM); with Pseudomonas aeruginosa [5], 16 µg/mL (≈ 23.4 µM); with Pseudomonas aeruginosa [6] it was 16 µg/mL (≈ 23.4 µM). Further, the minimum inhibitory concentration (MIC) with Enterobacter cloacae [7] is above 64 µg/mL; in the test on Acinetobacter baumannii [8] it was above 64 µg/mL; with Escherichia coli [9] it was 2 µg/mL (≈ 2.92 µM); in the test on Acinetobacter baumannii [10], above 64 µg/mL.
With `CC1(C)[C@H](NC(=O)/C(=N\O[C@@H](COc2ccc(NC(=O)NC3CCNCC3)cc2)C(=O)O)c2csc(N)n2)C(=O)N1OS(=O)(=O)O`, the MIC amounted to 4 µg/mL (≈ 5.84 µM) with Enterobacter cloacae [1]; 32 µg/mL (≈ 46.7 µM) in the test on Klebsiella pneumoniae [2]; 1 µg/mL (≈ 1.46 µM) in the test with Klebsiella pneumoniae [3]; 0.25 µg/mL (≈ 0.365 µM) in the test with Escherichia coli [4]; 2 µg/mL (≈ 2.92 µM) in the test with Pseudomonas aeruginosa [5]; 4 µg/mL (≈ 5.84 µM) with Pseudomonas aeruginosa [6]. Also, the MIC turned out to be 32 µg/mL (≈ 46.7 µM) with Enterobacter cloacae [7], 64 µg/mL (≈ 93.5 µM) with Acinetobacter baumannii [8], 1 µg/mL (≈ 1.46 µM) in the test on Escherichia coli [9] and 16 µg/mL (≈ 23.4 µM) with Acinetobacter baumannii [10].
As for `CC1(C)[C@H](NC(=O)/C(=N\O[C@@H](COc2ccc(NC(=O)N[C@@H]3CCCNC3)cc2)C(=O)O)c2csc(N)n2)C(=O)N1OS(=O)(=O)O`, the MIC with Enterobacter cloacae [1] was found to be 2 µg/mL (≈ 2.92 µM); in the test on Klebsiella pneumoniae [2], 8 µg/mL (≈ 11.7 µM); in the test on Klebsiella pneumoniae [3], 0.5 µg/mL (≈ 0.73 µM); in the test with Escherichia coli [4], 0.25 µg/mL (≈ 0.365 µM); in the test with Pseudomonas aeruginosa [5] it was 2 µg/mL (≈ 2.92 µM); with Pseudomonas aeruginosa [6], 8 µg/mL (≈ 11.7 µM). The MIC came out at 16 µg/mL (≈ 23.4 µM) in the test with Enterobacter cloacae [7], 16 µg/mL (≈ 23.4 µM) with Acinetobacter baumannii [8], 0.5 µg/mL (≈ 0.73 µM) in the test on Escherichia coli [9] and 8 µg/mL (≈ 11.7 µM) in the test on Acinetobacter baumannii [10].
For `CC1(C)[C@H](NC(=O)/C(=N\O[C@@H](COc2ccc(NC(=O)N[C@H]3CCCNC3)cc2)C(=O)O)c2csc(N)n2)C(=O)N1OS(=O)(=O)O`, the minimum inhibitory concentration (MIC) with Enterobacter cloacae [1] was 4 µg/mL (≈ 5.84 µM); in the test with Klebsiella pneumoniae [2] it was 32 µg/mL (≈ 46.7 µM); in the test with Klebsiella pneumoniae [3], 1 µg/mL (≈ 1.46 µM); in the test with Escherichia coli [4], 0.25 µg/mL (≈ 0.365 µM); with Pseudomonas aeruginosa [5] it was 2 µg/mL (≈ 2.92 µM); with Pseudomonas aeruginosa [6], 2 µg/mL (≈ 2.92 µM). The minimum inhibitory concentration (MIC) was 32 µg/mL (≈ 46.7 µM) with Enterobacter cloacae [7], 64 µg/mL (≈ 93.5 µM) in the test with Acinetobacter baumannii [8], 8 µg/mL (≈ 11.7 µM) in the test with Escherichia coli [9] and 32 µg/mL (≈ 46.7 µM) in the test with Acinetobacter baumannii [10].
On to `CC1(C)[C@H](NC(=O)/C(=N/O[C@@H](COc2ccc(NC(=O)N[C@@H]3CCCNC3)cc2)C(=O)O)c2csc(N)n2)C(=O)N1OS(=O)(=O)O`, for which the minimum inhibitory concentration (MIC) was 64 µg/mL (≈ 93.5 µM) in the test on Enterobacter cloacae [1]; above 64 µg/mL in the test on Klebsiella pneumoniae [2]; 32 µg/mL (≈ 46.7 µM) with Klebsiella pneumoniae [3]; 8 µg/mL (≈ 11.7 µM) in the test with Escherichia coli [4]; 32 µg/mL (≈ 46.7 µM) in the test on Pseudomonas aeruginosa [5]; 64 µg/mL (≈ 93.5 µM) in the test on Pseudomonas aeruginosa [6]. The MIC with Enterobacter cloacae [7] is 32 µg/mL (≈ 46.7 µM); in the test with Acinetobacter baumannii [8], above 64 µg/mL; with Escherichia coli [9] it was 32 µg/mL (≈ 46.7 µM); in the test on Acinetobacter baumannii [10], above 64 µg/mL.
As for `CC1(C)[C@H](NC(=O)/C(=N/O[C@@H](COc2ccc(NC(=O)N[C@H]3CCCNC3)cc2)C(=O)O)c2csc(N)n2)C(=O)N1OS(=O)(=O)O`, the MIC in the test on Enterobacter cloacae [1] was 64 µg/mL (≈ 93.5 µM); in the test with Klebsiella pneumoniae [2] it was above 64 µg/mL; in the test on Klebsiella pneumoniae [3] it was 32 µg/mL (≈ 46.7 µM); in the test on Escherichia coli [4], 4 µg/mL (≈ 5.84 µM); with Pseudomonas aeruginosa [5], 32 µg/mL (≈ 46.7 µM); in the test with Pseudomonas aeruginosa [6], 64 µg/mL (≈ 93.5 µM). Also, the MIC in the test on Enterobacter cloacae [7] is 16 µg/mL (≈ 23.4 µM); in the test with Acinetobacter baumannii [8], above 64 µg/mL; in the test on Escherichia coli [9] it was 32 µg/mL (≈ 46.7 µM); in the test on Acinetobacter baumannii [10], above 64 µg/mL.

As usually defined, the MIC is the lowest concentration found to suppress growth.
